From US20110039762A1, “TARGETED ANTIMICROBIAL MOIETIES” (C3 JIAN, INC., priority 2009, published 2011)
Entries after “also recorded” stand apart in the source; their conditions may differ.

B1: PF-389: peptide having multiple activities (peptide)
chain 1: GLQFKEIAEEFHITTTALQQWHKDNGYPIYNKNNRK
chain 2: B1 chain 1
modifications: Peptide with targeting and/or antimicrobial activity

Columns and labels:
C. jejuni = experiment: Kill or inhibit growth/proliferation; morphology, biofilm and growth disruption (Tables 5, 6); type: cell-based, Campylobacter jejuni; design: key: A: Peptide aggregates; B: Less hyphal formation; Clumps; Diffuse clumps and small polyps; F: Diffuse growth; H: Thin; I: Growth inhibition; Microcolony formation; Rippled; Small polyps; Thick; W: Halo formation on top, microlonies on bottom; note: test concentration or dose not given here
E. faecalis = experiment: as above; type: cell-based, Enterococcus faecalis; design: key: A: Peptide aggregates; B: Less hyphal formation; Clumps; Diffuse clumps and small polyps; F: Diffuse growth; H: Thin; I: Growth inhibition; Microcolony formation; Rippled; Small polyps; Thick; W: Halo formation on top, microlonies on bottom
microorganisms = experiment: Peptides having multiple activities (targeting/binding, antimicrobial, growth or phenotype altering)
From the text: In certain embodiments, peptides described herein can have multiple activities. Thus for example, a peptide can have both binding/targeting activity and antimicrobial activity. Such peptides can be used, e.g., in a chimeric construct, for any or all of these properties. Thus, for example, a peptide designated “B” in Table 8 can be used as a targeting peptide. If it is also designated G or M it can also be used for antimicrobial activity.

[1] = test system: microorganisms (e.g., bacteria, yeasts, fungi); experiment: Targeting peptide binding to target microorganisms (Table 3); details: preferably 1x PBS; for Target(s): microorganism(s) the targeting peptide binds, peptide binding conducted in aqueous buffers varied by peptide solubility; for Target(s) (microorganisms bound by the targeting peptide): peptide binding in aqueous buffers varied by peptide solubility
S. epidermidis = experiment: Kill or inhibit growth/proliferation; morphology, biofilm and growth disruption (Tables 5, 6); type: cell-based, Staphylococcus epidermidis; design: key: A: Peptide aggregates; B: Less hyphal formation; Clumps; Diffuse clumps and small polyps; F: Diffuse growth; H: Thin; I: Growth inhibition; Microcolony formation; Rippled; Small polyps; Thick; W: Halo formation on top, microlonies on bottom; note: test concentration or dose not given here
S. pneumoniae = experiment: as above; type: cell-based, Streptococcus pneumoniae; design: key: A: Peptide aggregates; B: Less hyphal formation; Clumps; Diffuse clumps and small polyps; F: Diffuse growth; H: Thin; I: Growth inhibition; Microcolony formation; Rippled; Small polyps; Thick; W: Halo formation on top, microlonies on bottom
MRSA = experiment: as above; type: cell-based, Methicillin-resistant Staphylococcus aureus; design: key: A: Peptide aggregates; B: Less hyphal formation; Clumps; Diffuse clumps and small polyps; F: Diffuse growth; H: Thin; I: Growth inhibition; Microcolony formation; Rippled; Small polyps; Thick; W: Halo formation on top, microlonies on bottom; note: test concentration or dose not given here
Throughout, for Organism, effect: test concentration or dose not given here.

| Molecule | Organism, effect (C. jejuni) | Organism, effect (E. faecalis) | Activities (microorganisms) | Target(s) [1] | Organism, effect (S. epidermidis) | Organism, effect (S. pneumoniae) | Organism, effect (MRSA) | Target(s) (microorganisms bound by the targeting peptide) [1] |
| --- | --- | --- | --- | --- | --- | --- | --- | --- |
| PF-059 (TITLKAGIERALHEEVPGVIEVEQVF; Peptide with targeting and/or antimicrobial activity) | C. jejuni (C) | – | – | – | – | – | – | – |
| PF-470: peptide having multiple activities (chain 1 PYSDSYATRPHWEQHRAR; chain 2 PYSDSYATRPHWEQHRAR; Peptide with targeting and/or antimicrobial activity) | C. jejuni (A) | E. faecalis (A) | G B | M. luteus and E. coli and MRSA and E. faecalis and C. jeikeium and C. jejuni | – | – | – | – |
| PF-607: peptide having multiple activities (YIESDPRKFDYIFGAIRDH; Peptide with targeting and/or antimicrobial activity) | C. jejuni (R) | E. faecalis (A) | G B | – | S. epidermidis (M) | S. pneumoniae (R) | MRSA (S) | S. epidermidis and P. mirabilis and E. coli and MRSA and S. pneumoniae and C. jeikeium |
| PF-456: peptide having multiple activities (chain 1 TCVKPRTIN; chain 2 TCVKPRTIN; Peptide with targeting and/or antimicrobial activity) | C. jejuni (A) | E. faecalis (A) | G B | C. albicans and MRSA and E. faecalis and C. jeikeium and C. jejuni | – | – | – | – |
| PF-392: peptide having multiple activities (chain 1 DPAGCNDIVRKYCK; chain 2 DPAGCNDIVRKYCK; Peptide with targeting and/or antimicrobial activity) | C. jejuni (A) | E. faecalis (A) | G B | S. epidermidis; also recorded: B. subtilis; also recorded: S. pneumoniae; also recorded: C. jeikeium; also recorded: C. jejuni | – | – | MRSA (S) | – |
| PF-431: peptide having multiple activities (VAYAAICWW; Peptide with targeting and/or antimicrobial activity) | C. jejuni (R) | E. faecalis (R) | G B | – | S. epidermidis (M) | S. pneumoniae (R) | MRSA (C) | – |
| PF-590: peptide having multiple activities (YYQAKLFPLL; Peptide with targeting and/or antimicrobial activity) | C. jejuni (R) | – | G B | S. epidermidis; also recorded: M. luteus; also recorded: E. coli; also recorded: E. faecalis; also recorded: C. jeikeium | – | – | – | – |
| PF-614: peptide having multiple activities (GLDIYA; Peptide with targeting and/or antimicrobial activity) | C. jejuni (R) | E. faecalis (A) | – | – | S. epidermidis (M) | S. pneumoniae (R) | – | S. epidermidis; also recorded: E. coli; also recorded: C. jeikeium |
| PF-393: peptide having multiple activities (chain 1 DLVQSILSEFKKSG; chain 2 DLVQSILSEFKKSG; Peptide with targeting and/or antimicrobial activity) | C. jejuni (R) | E. faecalis (A) | G B | S. epidermidis and E. coli and C. albicans and MRSA and S. pneumoniae and C. jejuni | S. epidermidis (R) | S. pneumoniae (R) | MRSA (C) | – |
| PF-601: peptide having multiple activities (YRVTVKALE; Peptide with targeting and/or antimicrobial activity) | C. jejuni (A) | E. faecalis (A) | G B | – | – | – | – | C. jeikeium |
| DLLKSLLGQDGAKNDEIIEFIKIIMEK [PF-591] | C. jejuni (C) | E. faecalis (A) | – | – | – | S. pneumoniae (R) | – | – |
| PF-581: peptide having multiple activities (WTARARR; Peptide with targeting and/or antimicrobial activity) | C. jejuni (A) | E. faecalis (A) | G B | – | – | S. pneumoniae (A) | MRSA (A) | – |
| PF-585: peptide having multiple activities (DYNHLLNVVQDWVNTN; Peptide with targeting and/or antimicrobial activity) | C. jejuni (R) | E. faecalis (A) | G B | S. epidermidis and E. coli and C. albicans and MRSA and S. pneumoniae and C. jeikeium | S. epidermidis (S) | S. pneumoniae (R) | MRSA (S) | – |
| PF-609: peptide having multiple activities (TEIKLDNNEYLVLNLDDILGILK; Peptide with targeting and/or antimicrobial activity) | C. jejuni (R) | E. faecalis (A) | G B | – | – | S. pneumoniae (R) | MRSA (C) | P. mirabilis; also recorded: E. coli; also recorded: S. pneumoniae |
| PF-599: peptide having multiple activities (LFEIFKPKH; Peptide with targeting and/or antimicrobial activity) | C. jejuni (R) | E. faecalis (A) | G B | – | S. epidermidis (M) | S. pneumoniae (R) | MRSA (C) | S. epidermidis and P. mirabilis and E. coli and C. albicans and MRSA and S. pneumoniae and C. jeikeium |
| B1 | C. jejuni (R) | E. faecalis (R) | G B | S. epidermidis and C. albicans and MRSA and S. pneumoniae and E. faecalis and C. jeikeium | S. epidermidis (R) | S. pneumoniae (D) | MRSA (C) | – |
